Experimental findings from US12637461B2, “Compounds for the activation of AMPK” (PFIZER INC., priority 2022, dated 2026) are described below.

Structures are written as SMILES.

The term EC50 denotes the concentration that produces a half-maximal response.

The assay concerns the target T1, human AMPK α2β2γ3 (Homo sapiens, UniProt O43741+P54646+Q9UGI9).
T1 construct: expressed in transfected cells; host or cells: HEK293AD cells, MaxCyte bulk electroporation
Put plainly: Primary cellular assay: γ3 associated phospho-Thr172 AMPK detection (custom pAMPK Surefire AlphaLISA) in α2β2γ3 bulk transiently transfected HEK293 cells. It counts as cell-based. The conditions noted are these: activation of human AMPK α2β2γ3 (γ3 pThr172 AMPK signal) in transiently transfected HEK293 cells, 20 minutes compound incubation; for Emax: 20 min, read-out: Assay GMean Asy. Max (%); for EC50: geometric mean EC50, read-out: Assay GMean EC50. How it is done: Primary Cellular Assay—γ3 Associated Phospho-Thr172 AMPK Detection in α2β2γ3 Bulk Transiently Transfected HEK293 Cells
The cellular potencies of the compounds were evaluated using a custom pAMPK Surefire AlphaLISA designed to assess γ3 associated phospho-Thr172 AMPK and modulation by small molecules in AMPK α2β2γ3 transiently transfected HEK293 cells.
A pAMPK Surefire AlphaLISA (PE-ASLU-PAMPK) assay available through Perkin Elmer was modified to selectively assess γ3 pThr172 AMPK content (as opposed to total pThr172 AMPK) by labeling a γ3 antibody with a CaptSure™ tag and substituting it for the total α1c/α2 AMPK labeled antibodies in the kit. In the modified assay, the overall abundance of γ3 AMPK is recognized by the CaptSure γ3 antibody and the phosphorylated AMPK is recognized by biotinylated pThr172 antibody. Subsequent reactivity with streptavitin donor beads and anti CaptSure conjugated acceptor beads brings the molecules into close proximity. Upon excitation at 680 nm, the donor bead converts ambient oxygen to a more excited singlet state which reacts with the acceptor bead and emits light at 520 to 620 nm. The intensity of the signal is proportional to the level of γ3 associated pThr172 AMPK phosphorylation.
In short, AMPK-α2+β2+γ3 MaxCyte bulk-transfected HEK293AD cells were thawed in growth media (DMEM High glucose+10% FBS) in a collagen-coated T150 flask and the cells were allowed to adhere and grow overnight in a 37° C. incubator. The following day, the cells were harvested and resuspended in plating medium (DMEM Low glucose+10% FBS) at a concentration of 100,000 cells per mL and 50 μL of this cell suspension was added to all wells of a 384-well plate using a Multidrop Combi. The cells were allowed to adhere and grow for 2 days in a 37° C. incubator. On assay day, compounds were diluted in 100% dimethyl sulfoxide (DMSO) in a 11 dose, half log dilution scheme and spotted in the cell plates at 1000× the final concentration. Compound incubations were performed in plating media for 20 minutes. Cells were washed with PBS, lysed and the signal was generated by subsequent additions of RB1 reagent from the kit, 1:1000 CaptSure γ3 labeled antibody in 1× immunoassay buffer, Anti-CaptSure acceptor beads and Streptavitin donor beads at final concentration of […]. The γ3 pThr172 AMPK signal was developed using EnVision™ multilabel reader (Perkin Elmer) using Alphascreen settings. The fluorescence emission was used to calculate the % effect relative to the HPE (30 μM) and ZPE (DMSO). EC50 curves were generated with the ActivityBase software using the XLfit model 205 to determine EC50 and Emax values.
For screening purposes, bulk AMPK-α2+β2+γ3 MaxCyte bulk transfection into HEK293AD cells were generated to support SAR screening as follows.
HEK293AD cells were seeded into 10 flasks at 2.7×10^7 cells per flask. The following day 12 mL of Trypl E dissociation reagent were added to each flask to lift the cells and the cells were then spun at 300×g for 5 minutes. Cells were washed once in MaxCyte EP buffer and then resuspended in MaxCyte EP buffer at 1×10^8 cells per mL. For transfection, 500×10^6 cells in 500 μl MaxCyte EP buffer were placed in a CL1.1 Processing Assembly (electroporation cell) with 1 mg/mL ([…]) of each of the plasmids pcDNA3.1(+)-human AMPK alpha 2, pcDNA3.1(+)-human AMPK beta 2 and pcDNA3.1(+)-human AMPK gamma 3 and the electroporation was carried out on the MaxCyte STX using the HEK293 electroporation protocol. Following electroporation, cells were transferred to a T175 flask containing growth medium (DMEM High glucose+10% FBS) and allowed to recover for 25 minutes, then the cells were resuspended to final volume of 900 mL and distributed into 6XT175 flasks and allowed to adhere and grow overnight in a 37° C. incubator. […]
For orientation: In Alpha technology, singlet oxygen from a donor bead excites a nearby acceptor bead.

Where [1] appears, read: geometric mean of the asymptotic max.

T1 sequence (P54646 whole entry): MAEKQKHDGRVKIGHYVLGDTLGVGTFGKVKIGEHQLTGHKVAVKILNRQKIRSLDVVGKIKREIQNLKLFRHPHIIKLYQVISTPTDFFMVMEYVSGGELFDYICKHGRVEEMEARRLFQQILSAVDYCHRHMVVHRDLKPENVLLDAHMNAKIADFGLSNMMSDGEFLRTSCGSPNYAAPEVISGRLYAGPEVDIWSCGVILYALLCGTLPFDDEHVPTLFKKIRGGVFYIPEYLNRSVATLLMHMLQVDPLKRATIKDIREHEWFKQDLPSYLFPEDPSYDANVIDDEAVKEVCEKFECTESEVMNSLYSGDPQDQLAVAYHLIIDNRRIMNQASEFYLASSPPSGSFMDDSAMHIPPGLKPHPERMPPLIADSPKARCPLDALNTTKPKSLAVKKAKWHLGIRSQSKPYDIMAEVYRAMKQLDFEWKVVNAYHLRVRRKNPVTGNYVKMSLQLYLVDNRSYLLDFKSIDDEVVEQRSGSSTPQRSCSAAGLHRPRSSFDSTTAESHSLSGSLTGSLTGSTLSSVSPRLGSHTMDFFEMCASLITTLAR
T1 sequence (O43741 whole entry): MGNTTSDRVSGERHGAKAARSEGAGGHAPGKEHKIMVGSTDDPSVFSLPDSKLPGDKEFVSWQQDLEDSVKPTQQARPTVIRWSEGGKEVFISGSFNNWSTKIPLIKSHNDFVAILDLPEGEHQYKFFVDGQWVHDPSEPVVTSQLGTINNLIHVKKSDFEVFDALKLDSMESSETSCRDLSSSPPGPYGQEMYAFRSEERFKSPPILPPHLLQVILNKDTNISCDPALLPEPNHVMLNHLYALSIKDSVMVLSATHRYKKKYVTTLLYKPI
T1 sequence (Q9UGI9 whole entry): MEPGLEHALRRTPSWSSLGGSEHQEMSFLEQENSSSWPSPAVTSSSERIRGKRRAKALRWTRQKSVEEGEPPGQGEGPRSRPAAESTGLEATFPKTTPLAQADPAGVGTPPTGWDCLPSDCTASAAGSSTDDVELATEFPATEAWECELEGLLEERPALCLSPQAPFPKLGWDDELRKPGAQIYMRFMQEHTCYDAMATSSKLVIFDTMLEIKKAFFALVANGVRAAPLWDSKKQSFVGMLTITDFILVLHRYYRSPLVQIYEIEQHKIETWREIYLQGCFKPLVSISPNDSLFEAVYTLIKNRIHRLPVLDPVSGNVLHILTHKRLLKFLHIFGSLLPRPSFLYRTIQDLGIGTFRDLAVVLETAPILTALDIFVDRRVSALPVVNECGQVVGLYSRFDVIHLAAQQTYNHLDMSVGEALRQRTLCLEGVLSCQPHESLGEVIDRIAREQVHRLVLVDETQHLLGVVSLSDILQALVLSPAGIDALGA

For `Cn1cnc(N2C[C@](C)(c3cccc(Cl)c3F)c3c(cnc(NC4CN(C(=O)C(C)(C)O)C4)c3F)C2=O)c1` [Example 3, (4R)-4-(3-Chloro-2-fluorophenyl)-5-fluoro-6-{[1-(2-hydroxy-2-methylpropanoyl)azetidin-3-yl]amino}-4-methyl-2-(1-methyl-1H-imidazol-4-yl)-3,4-dihydro-2,7-naphthyridin-1(2H)-one], the concentration giving a half-maximal response (EC50) is 112 nM. Also, under setting [1], the Emax is 56%.
For `C[C@]1(c2cccc(Cl)c2F)CN(c2ccc(CO)cn2)C(=O)c2cnc(NC3CN(C(=O)c4cccnn4)C3)c(F)c21` [Example 4, (4R)-4-(3-Chloro-2-fluorophenyl)-5-fluoro-2-[5-(hydroxymethyl)pyridin-2-yl]-4-methyl-6-{[1-(pyridazine-3-carbonyl)azetidin-3-yl]amino}-3,4-dihydro-2,7-naphthyridin-1(2H)-one] the same measures were 66.3 nM and 96.3%.
For `C[C@]1(c2cccc(Cl)c2F)CN(c2ccccn2)C(=O)c2cnc(NC3CN(C(=O)[C@@H]4C[C@@H]4F)C3)c(F)c21` [Example 5, (4R)-4-(3-chloro-2-fluorophenyl)-5-fluoro-6-({1-[(1S,2S)-2-fluorocyclopropane-1-carbonyl]azetidin-3-yl}amino)-4-methyl-2-(pyridin-2-yl)-3,4-dihydro-2,7-naphthyridin-1(2H)-one] the same measures were 27.7 nM and 64.9%.
For `C[C@]1(c2cccc(Cl)c2F)CN(c2ncccc2F)C(=O)c2cnc(NC3CN(C(=O)[C@@H]4C[C@@H]4F)C3)c(F)c21` [Example 6, (4R)-4-(3-chloro-2-fluorophenyl)-5-fluoro-6-({1-[(1S,2S)-2-fluorocyclopropane-1-carbonyl]azetidin-3-yl}amino)-2-(3-fluoropyridin-2-yl)-4-methyl-3,4-dihydro-2,7-naphthyridin-1(2H)-one], the EC50 was found to be 22.2 nM. Further, under setting [1], the Emax came to 58%.
For the compound `Cn1cc(F)c(N2C[C@](C)(c3cccc(Cl)c3F)c3c(cnc(NC4CN(C(=O)C5(O)CCC5)C4)c3F)C2=O)n1` [Example 7, (4R)-4-(3-Chloro-2-fluorophenyl)-5-fluoro-2-(4-fluoro-1-methyl-1H-pyrazol-3-yl)-6-{[1-(1-hydroxycyclobutane-1-carbonyl)azetidin-3-yl]amino}-4-methyl-3,4-dihydro-2,7-naphthyridin-1(2H)-one], the EC50 was determined as 144 nM. Under setting [1], the Emax is 123%.
For `Cn1cc(F)c(N2C[C@](C)(c3cccc(Cl)c3F)c3c(cnc(NC4CN(C(=O)[C@H]5C[C@@H]5F)C4)c3F)C2=O)n1` [Example 8, (4R)-4-(3-Chloro-2-fluorophenyl)-5-fluoro-6-({1-[(1R,2S)-2-fluorocyclopropane-1-carbonyl]azetidin-3-yl}amino)-2-(4-fluoro-1-methyl-1H-pyrazol-3-yl)-4-methyl-3,4-dihydro-2,7-naphthyridin-1(2H)-one] the same measures were 63.8 nM and 58.2%.
For `CN(C(=O)CN1CC(Nc2ncc3c(c2F)[C@@](C)(c2cccc(Cl)c2F)CN(c2nn(C)cc2F)C3=O)C1)C1CC1` [Example 11, 2-(3-{[(5R)-5-(3-Chloro-2-fluorophenyl)-4-fluoro-7-(4-fluoro-1-methyl-1H-pyrazol-3-yl)-5-methyl-8-oxo-5,6,7,8-tetrahydro-2,7-naphthyridin-3-yl]amino}azetidin-1-yl)-N-cyclopropyl-N-methylacetamide] the same measures were 22.7 nM and 160%.
For `Cn1cc(F)c(N2C[C@](C)(c3cccc(Cl)c3F)c3c(cnc(NC4CN(C(=O)CN5CCCC5)C4)c3F)C2=O)n1` [Example 12, (4R)-4-(3-Chloro-2-fluorophenyl)-5-fluoro-2-(4-fluoro-1-methyl-1H-pyrazol-3-yl)-4-methyl-6-({1-[(pyrrolidin-1-γ1)acetyl]azetidin-3-yl}amino)-3,4-dihydro-2,7-naphthyridin-1(2H)-one], the 50% effective concentration (EC50) amounted to 43.5 nM. In addition, the Emax under setting [1] was found to be 77.9%.
Take `CC(C)NCC(=O)N1CC(Nc2ncc3c(c2F)[C@@](C)(c2cccc(Cl)c2F)CN(c2nn(C)cc2F)C3=O)C1` [Example 13, (4R)-4-(3-Chloro-2-fluorophenyl)-5-fluoro-2-(4-fluoro-1-methyl-1H-pyrazol-3-yl)-4-methyl-6-[(1-{[(propan-2-γ1)amino]acetyl}azetidin-3-γ1)amino]-3,4-dihydro-2,7-naphthyridin-1(2H)-one]: the EC50 was 108 nM. Under setting [1], the “Assay GMean Asy. Max (%)” value was determined as 46.2%.
With `C[C@]1(c2cccc(Cl)c2F)CN(c2cc(F)c(CN)cc2F)C(=O)c2cnc(NC3CN(C(=O)[C@@H]4C[C@@H]4F)C3)c(F)c21` [Example 14, (4R)-2-[4-(aminomethyl)-2,5-difluorophenyl]-4-(3-chloro-2-fluorophenyl)-5-fluoro-6-({1-[(1S,2S)-2-fluorocyclopropane-1-carbonyl]azetidin-3-yl}amino)-4-methyl-3,4-dihydro-2,7-naphthyridin-1(2H)-one], the EC50 turned out to be 33.7 nM. For the same compound, under setting [1], the Emax is 69.4%.
As for `C[C@]1(c2cccc(Cl)c2F)CN(c2ccc(N)cn2)C(=O)c2cnc(NC3CN(C(=O)[C@@H]4C[C@@H]4F)C3)c(F)c21` [Example 15, (4R)-2-(5-aminopyridin-2-yl)-4-(3-chloro-2-fluorophenyl)-5-fluoro-6-({1-[(1S,2S)-2-fluorocyclopropane-1-carbonyl]azetidin-3-yl}amino)-4-methyl-3,4-dihydro-2,7-naphthyridin-1(2H)-one], the EC50 was 31.5 nM. The Emax under setting [1] is 61.5%.
As to `C[C@@H](O)c1ccc(N2C[C@](C)(c3cccc(Cl)c3F)c3c(cnc(NC4CN(C(=O)[C@@H]5C[C@@H]5F)C4)c3F)C2=O)nc1` [Example 18, (4R)-4-(3-Chloro-2-fluorophenyl)-5-fluoro-6-({1-[(1S,2S)-2-fluorocyclopropane-1-carbonyl]azetidin-3-yl}amino)-2-{5-[(1R)-1-hydroxyethyl]pyridin-2-yl}-4-methyl-3,4-dihydro-2,7-naphthyridin-1(2H)-one], the concentration giving a half-maximal response (EC50) came out at 165 nM. Under setting [1], the Emax stood at 79.2%.
On to `C[C@]1(c2cccc(Cl)c2F)CN(c2ncccc2F)C(=O)c2cnc(NC3CN(C(N)=O)C3)c(F)c21` [Example 19, 3-{[(5R)-5-(3-Chloro-2-fluorophenyl)-4-fluoro-7-(3-fluoropyridin-2-yl)-5-methyl-8-oxo-5,6,7,8-tetrahydro-2,7-naphthyridin-3-yl]amino}azetidine-1-carboxamide], for which the EC50 worked out at 87.2 nM. Moreover, the Emax under setting [1] is 31.3%.
With `CNC(=O)N1CC(Nc2ncc3c(c2F)[C@@](C)(c2cccc(Cl)c2F)CN(c2ncccc2F)C3=O)C1` [Example 20, 3-{[(5R)-5-(3-Chloro-2-fluorophenyl)-4-fluoro-7-(3-fluoropyridin-2-yl)-5-methyl-8-oxo-5,6,7,8-tetrahydro-2,7-naphthyridin-3-yl]amino}-N-methylazetidine-1-carboxamide], the EC50 stood at 23.9 nM. Besides, under setting [1], the Emax is 43.1%.
